Results published in US20230040770A1, “HETEROCYCLIC COMPOUND AND USE THEREOF” (TAKEDA PHARMACEUTICAL COMPANY LIMITED, priority 2019, published 2023).

Each compound was assayed against T1, human orexin type 2 receptor (Homo sapiens, UniProt O43614) (assay: Measurement of orexin type 2 receptor agonist activity (calcium indicator fluorescence, CHO cells forcibly expressing human OX2 receptor)). Settings: compound at 3 μM; 0% = DMSO, 100% = orexin A (human) 10 nM.
T1 construct: expressed in transfected cells
T1 sequence (O43614 1-444): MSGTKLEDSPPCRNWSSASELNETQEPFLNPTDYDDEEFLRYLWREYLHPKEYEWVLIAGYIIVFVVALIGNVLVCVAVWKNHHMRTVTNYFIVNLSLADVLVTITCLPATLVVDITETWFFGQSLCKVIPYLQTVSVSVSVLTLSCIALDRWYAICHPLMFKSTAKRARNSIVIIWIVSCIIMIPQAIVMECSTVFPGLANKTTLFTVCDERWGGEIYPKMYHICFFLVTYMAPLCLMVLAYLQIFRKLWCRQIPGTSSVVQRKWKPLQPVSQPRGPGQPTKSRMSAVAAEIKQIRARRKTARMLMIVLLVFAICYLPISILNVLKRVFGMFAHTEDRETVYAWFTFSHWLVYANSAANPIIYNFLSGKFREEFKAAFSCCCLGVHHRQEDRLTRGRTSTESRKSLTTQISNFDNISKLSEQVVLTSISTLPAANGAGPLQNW
Format: cell-based
Summary of the method: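 Agonist response normalised between vehicle (0%) and orexin A at 10 nM final (100%), from kinetic Fluo-4 calcium signals recorded for about 2 min after compound addition. Cells: stable human OX2R CHO clone, dye-loaded 30 min at 37 °C plus 30 min at room temperature.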

SMILES	OX2R agonist activity (3 μM, %)
CCS(=O)(=O)N[C@@H]1[C@H](Cc2cccc(-c3cccc(Cl)c3F)c2F)N(C(=O)C2CC2)CC1(F)F [Example 249, N-[(2S,3R)-2-[(3′-chloro-2,2′-difluoro[1,1′-biphenyl]-3-yl)methyl]-1-(cyclopropanecarbonyl)-4,4-difluoropyrrolidin-3-yl]ethanesulfonamide]	90%
CS(=O)(=O)N[C@@H]1[C@H](Cc2cccc(-c3cccc(Cl)c3)c2F)N(C(=O)C2CC2)CC1(F)F [Example 250, N-[(2S,3R)-2-[(3′-chloro-2-fluoro[1,1′-biphenyl]-3-yl)methyl]-1-(cyclopropanecarbonyl)-4,4-difluoropyrrolidin-3-yl]methanesulfonamide]	96%
CCS(=O)(=O)N[C@@H]1[C@H](Cc2cccc(-c3cc(Cl)ccc3F)c2F)N(C(=O)C2CC2)CC1(F)F [Example 251, N-[(2S,3R)-2-[(5′-chloro-2,2′-difluoro[1,1′-biphenyl]-3-yl)methyl]-1-(cyclopropanecarbonyl)-4,4-difluoropyrrolidin-3-yl]ethanesulfonamide]	91%
CCCC(=O)N1CC(F)(F)[C@H](NS(=O)(=O)CC)[C@@H]1Cc1cccc(-c2cccc(F)c2)c1F [Example 257, N-{(2S,3R)-1-butanoyl-2-[(2,3′-difluoro[1,1′-biphenyl]-3-yl)methyl]-4,4-difluoropyrrolidin-3-yl}ethanesulfonamide]	96%
CS(=O)(=O)N[C@@H]1[C@H](Cc2cccc(-c3cccc(Cl)c3)c2F)N(C(=O)C2CCO2)CC1(F)F (stereo partly drawn) [Example 259, N-[(2S,3R)-2-[(3′-chloro-2-fluoro[1,1′-biphenyl]-3-yl)methyl]-4,4-difluoro-1-(oxetane-2-carbonyl)pyrrolidin-3-yl]methanesulfonamide]	96%
CS(=O)(=O)N[C@@H]1[C@H](Cc2cccc(-c3cccc(Cl)c3F)c2F)N(C(=O)C2CCO2)CC1(F)F (stereo partly drawn) [Example 263, N-[(2S,3R)-2-[(3′-chloro-2,2′-difluoro[1,1′-biphenyl]-3-yl)methyl]-4,4-difluoro-1-(oxetane-2-carbonyl)pyrrolidin-3-yl]methanesulfonamide]	103%
CS(=O)(=O)N[C@@H]1[C@H](Cc2cccc(-c3cccc(Cl)c3F)c2F)N(C(=O)C2CCO2)CC1(F)F (stereo partly drawn) [Example 264, N-[(2S,3R)-2-[(3′-chloro-2,2′-difluoro[1,1′-biphenyl]-3-yl)methyl]-4,4-difluoro-1-(oxetane-2-carbonyl)pyrrolidin-3-yl]methanesulfonamide]	98%
CS(=O)(=O)N[C@@H]1[C@H](Cc2cccc(-c3cc(F)cc(Cl)c3)c2F)N(C(=O)C2CCO2)CC1(F)F (stereo partly drawn) [Example 265, N-[(2S,3R)-2-[(3′-chloro-2,5′-difluoro[1,1′-biphenyl]-3-yl)methyl]-4,4-difluoro-1-(oxetane-2-carbonyl)pyrrolidin-3-yl]methanesulfonamide]	96%
CS(=O)(=O)N[C@@H]1[C@H](Cc2cccc(-c3cc(F)cc(Cl)c3)c2F)N(C(=O)C2CCO2)CC1(F)F (stereo partly drawn) [Example 266, N-[(2S,3R)-2-[(3′-chloro-2,5′-difluoro[1,1′-biphenyl]-3-yl)methyl]-4,4-difluoro-1-(oxetane-2-carbonyl)pyrrolidin-3-yl]methanesulfonamide]	83%
CCS(=O)(=O)N[C@@H]1[C@H](Cc2cccc(-c3cccc(Cl)c3)c2F)N(C(=O)C2CCO2)CC1(F)F (stereo partly drawn) [Example 267, N-[(2S,3R)-2-[(3′-chloro-2-fluoro[1,1′-biphenyl]-3-yl)methyl]-4,4-difluoro-1-(oxetane-2-carbonyl)pyrrolidin-3-yl]ethanesulfonamide]	92%
CCS(=O)(=O)N[C@@H]1[C@H](Cc2cccc(-c3cccc(Cl)c3)c2F)N(C(=O)C2CCO2)CC1(F)F (stereo partly drawn) [Example 268, N-[(2S,3R)-2-[(3′-chloro-2-fluoro[1,1′-biphenyl]-3-yl)methyl]-4,4-difluoro-1-(oxetane-2-carbonyl)pyrrolidin-3-yl]ethanesulfonamide]	94%

Further lines, results first:

OX2R agonist activity (3 μM, %)	SMILES
88%	CCS(=O)(=O)N[C@@H]1[C@H](Cc2cccc(-c3cc(F)cc(F)c3)c2F)N(C(=O)C2(O)CCC2)CC1(F)F [Example 272, N-{(2S,3R)-4,4-difluoro-1-(1-hydroxycyclobutane-1-carbonyl)-2-[(2,3′,5′-trifluoro[1,1′-biphenyl]-3-yl)methyl]pyrrolidin-3-yl}ethanesulfonamide]
83%	CCS(=O)(=O)N[C@@H]1[C@H](Cc2cccc(-c3cccc(F)c3)c2F)N(C(=O)C2(O)CCC2)CC1(F)F [Example 273, N-[(2S,3R)-2-[(2,3′-difluoro[1,1′-biphenyl]-3-yl)methyl]-4,4-difluoro-1-(1-hydroxycyclobutane-1-carbonyl)pyrrolidin-3-yl]ethanesulfonamide]
93%	CCS(=O)(=O)N[C@@H]1[C@H](Cc2cccc(-c3cccc(F)c3F)c2F)N(C(=O)C2(O)CCC2)CC1(F)F [Example 274, N-{(2S,3R)-4,4-difluoro-1-(1-hydroxycyclobutane-1-carbonyl)-2-[(2,2′,3′-trifluoro[1,1′-biphenyl]-3-yl)methyl]pyrrolidin-3-yl}ethanesulfonamide]
85%	CCS(=O)(=O)N[C@@H]1[C@H](Cc2cccc(-c3cccc(C)c3)c2F)N(C(=O)C2(O)CCC2)CC1(F)F [Example 275, N-[(2S,3R)-4,4-difluoro-2-[(2-fluoro-3′-methyl[1,1′-biphenyl]-3-yl)methyl]-1-(1-hydroxycyclobutane-1-carbonyl)pyrrolidin-3-yl]ethanesulfonamide]
88%	CCS(=O)(=O)N[C@@H]1[C@H](Cc2cccc(-c3cccc(C)c3F)c2F)N(C(=O)C2(O)CCC2)CC1(F)F [Example 276, N-[(2S,3R)-2-[(2,2′-difluoro-3′-methyl[1,1′-biphenyl]-3-yl)methyl]-4,4-difluoro-1-(1-hydroxycyclobutane-1-carbonyl)pyrrolidin-3-yl]ethanesulfonamide]
94%	CCS(=O)(=O)N[C@@H]1[C@H](Cc2cccc(-c3cccc(C)c3)c2F)N(C(=O)C2CCO2)CC1(F)F (stereo partly drawn) [Example 277, N-[(2S,3R)-4,4-difluoro-2-[(2-fluoro-3′-methyl[1,1′-biphenyl]-3-yl)methyl]-1-(oxetane-2-carbonyl)pyrrolidin-3-yl]ethanesulfonamide]
96%	CCS(=O)(=O)N[C@@H]1[C@H](Cc2cccc(-c3cc(F)cc(F)c3)c2F)N(C(=O)N(C)C)CC1(F)F [Example 282, (2S,3R)-3-[(ethanesulfonyl)amino]-4,4-difluoro-N,N-dimethyl-2-[(2,3′,5′-trifluoro[1,1′-biphenyl]-3-yl)methyl]pyrrolidine-1-carboxamide]
93%	CCS(=O)(=O)N[C@@H]1[C@H](Cc2cccc(-c3cc(F)cc(F)c3)c2F)N(C(=O)N2CCC2)CC1(F)F [Example 283, N-{(2S,3R)-1-(azetidine-1-carbonyl)-4,4-difluoro-2-[(2,3′,5′-trifluoro[1,1′-biphenyl]-3-yl)methyl]pyrrolidin-3-yl}ethanesulfonamide]
92%	CCS(=O)(=O)N[C@@H]1[C@H](Cc2cccc(-c3cccc(C)c3)c2F)N(C(=O)N(C)C)CC1(F)F [Example 284, (2S,3R)-3-[(ethanesulfonyl)amino]-4,4-difluoro-2-[(2-fluoro-3′-methyl[1,1′-biphenyl]-3-yl)methyl]-N,N-dimethylpyrrolidine-1-carboxamide]
98%	CCS(=O)(=O)N[C@@H]1[C@H](Cc2cccc(-c3cccc(C)c3)c2F)N(C(=O)N2CCC2)CC1(F)F [Example 285, N-{(2S,3R)-1-(azetidine-1-carbonyl)-4,4-difluoro-2-[(2-fluoro-3′-methyl[1,1′-biphenyl]-3-yl)methyl]pyrrolidin-3-yl}ethanesulfonamdie]
94%	CCS(=O)(=O)N[C@@H]1[C@H](Cc2cccc(-c3cccc(F)c3)c2F)N(C(=O)N2CCC2)CC1(F)F [Example 287, N-{(2S,3R)-1-(azetidine-1-carbonyl)-2-[(2,3′-difluoro[1,1′-biphenyl]-3-yl)methyl]-4,4-difluoropyrrolidin-3-yl}ethanesulfonamide]
80%	CCS(=O)(=O)N[C@@H]1[C@H](Cc2cccc(-c3cccc(F)c3F)c2F)N(C(=O)N2CCC2)CC1(F)F [Example 289, N-{(2S,3R)-1-(azetidine-1-carbonyl)-4,4-difluoro-2-[(2,2′,3′-trifluoro[1,1′-biphenyl]-3-yl)methyl]pyrrolidin-3-yl}ethanesulfonamide]
90%	CCS(=O)(=O)N[C@@H]1[C@H](Cc2cccc(-c3cccc(C)c3F)c2F)N(C(=O)N2CCC2)CC1(F)F [Example 291, N-{(2S,3R)-1-(azetidine-1-carbonyl)-2-[(2,2′-difluoro-3′-methyl[1,1′-biphenyl]-3-yl)methyl]-4,4-difluoropyrrolidin-3-yl}ethanesulfonamide]
87%	CCS(=O)(=O)N[C@H]1[C@@H](F)CN(C(=O)C(C)C)[C@H]1Cc1cccc(-c2cc(F)ccc2F)c1F [Example 292, N-{(2S,3R,4S)-4-fluoro-1-(2-methylpropanoyl)-2-[(2,2′,5′-trifluoro[1,1′-biphenyl]-3-yl)methyl]pyrrolidin-3-yl}ethanesulfonamide]
